This is an account of results in PMC7806935, “Exosite inhibition of ADAMTS-5 by a glycoconjugated arylsulfonamide” (Scientific Reports, 2021).

The experiment concerns the target T1, ADAMTS-5 MDTCS (Homo sapiens, UniProt Q9UNA0).
T1 construct: ADAMTS-5 MDTCS (lacking the C-terminal TS motif but retaining full versicanase activity); made in house; host or cells: HEK293T
T1 sequence (Q9UNA0 262-874 limits assumed): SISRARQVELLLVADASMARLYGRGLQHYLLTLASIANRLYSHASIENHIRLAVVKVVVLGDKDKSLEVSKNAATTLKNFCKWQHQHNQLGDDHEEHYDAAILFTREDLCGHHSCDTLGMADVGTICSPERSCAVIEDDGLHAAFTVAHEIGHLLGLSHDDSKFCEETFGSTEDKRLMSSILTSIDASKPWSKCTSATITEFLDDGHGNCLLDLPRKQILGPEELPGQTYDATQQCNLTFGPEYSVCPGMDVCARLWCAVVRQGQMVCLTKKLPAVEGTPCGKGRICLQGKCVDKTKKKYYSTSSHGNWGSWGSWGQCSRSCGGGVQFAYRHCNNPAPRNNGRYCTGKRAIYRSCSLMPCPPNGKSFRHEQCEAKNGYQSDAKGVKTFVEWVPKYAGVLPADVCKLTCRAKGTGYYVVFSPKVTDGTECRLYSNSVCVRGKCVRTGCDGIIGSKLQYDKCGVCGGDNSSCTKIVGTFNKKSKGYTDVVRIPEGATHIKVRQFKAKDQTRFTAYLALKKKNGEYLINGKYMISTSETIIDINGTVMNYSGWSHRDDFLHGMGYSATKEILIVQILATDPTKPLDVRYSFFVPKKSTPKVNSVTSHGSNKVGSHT
The experiment in a line: Dual inhibition study (GM6001 with or without 4b, QF peptide cleavage). It counts as biochemical. Here is the method: Figure 3 Compound 4b binds to the ADAMTS-5 Mp/Dis domains in the presence of GM6001. (A, B) Compound 4b inhibits versicanase activity of both full-length (FL) ADAMTS-5 and its variant containing only the Mp/Dis domains (ADAMTS-5 MD). Compound 4b (100 μM) or DMSO was incubated either with ADAMTS-5 FL (0.2 nM, A) or ADAMTS-5 MD (26 nM, B) for 2 h at 37 °C before addition of V1-5GAG (50 nM). At each time point, reactions were stopped by addition of EDTA and versikine fragments quantified by sandwich ELISA as reported in the Methods section. In the DMSO control, complete proteolysis was achieved after 7200 s. […]
QF peptide cleavage assays were conducted in 96-well black microtiter plates (Scientific Laboratories Supplies Ltd, Wilford, UK) using a Fluostar Omega microplate reader (BMG Labtech, Aylesbury, UK). The activity of ADAMTS-4 (1 nM) and -5 (5 nM) was monitored for 2 h using the fluorescent peptide substrates fluorescein 5(6)-carbonyl-Ala-Glu-Leu-[…]-Gly-Arg-Pro-Ile-Ser-Ile-Ala-Lys-N,N,N0,N0-tetramethyl-6-carboxyrhodamine-NH2 (FAM-AE ~ LQGRPISIAK-TAMRA, ADAMTS-4) and fluorescein 5(6)-carbonyl-Thr-Glu-Ser-Glu ~ Ser-Arg-Gly-Ala-Ile-Tyr-Lys-Lys-N,N,N0,N0-tetramethyl-6-carboxyrhodamine-NH2 (FAM-TESE ~ SRGAIYKK-TAMRA, ADAMTS-5) (custom-synthesized by Bachem, Bubendorf, Switzerland) with an excitation wavelength of 485 nm and an emission wavelength of 538 nm. […]

As for `CNC(=O)[C@H](Cc1c[nH]c2ccccc12)NC(=O)[C@@H](CC(=O)NO)CC(C)C` [GM6001], the IC50 (QF peptide, DMSO, no 4b, read-out: IC50^− (in the absence of 4b)) worked out at 370 ± 90 nM. For the same molecule, the “IC50^+/IC50^−” value (ratio with/without 10 μM 4b, < 1 synergistic) is listed as 0.043.

Usually IC50 stands for the concentration at which inhibition is half-maximal.
